Experimental data as given in patent US10597398B2, “Suppression and regeneration promoting effect of low molecular weight compound on cancer and fibrosis” (NATIONAL UNIVERSITY CORPORATION TOTTORI UNIVERSITY, priority 2015, dated 2020).

How the values were obtained:
Wnt/β-catenin signaling = assay: Inhibitory effect on Wnt/β-catenin signaling in liver cancer cells (HuH7-TCF4 luciferase); assay type: cell-based, human; details: concentration equal to or lower than that of IC-2
Outline: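 HuH-7 cells stably carrying a 3×TCF4-motif firefly luciferase reporter, treated 48 h at 37 °C with compounds at concentrations reducing HuH-7 growth to about 50% or less (n=3). Firefly luciferase luminescence read from lysates; 0.1% DMSO solvent control, 0.5 μM 5-FU control; Student's t-test.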

liver fibrosis = assay: Carbon tetrachloride-induced fibrosis model mouse (Sirius Red staining); assay type: in vivo, C57BL/6 male mice; details: carbon tetrachloride 8 weeks, drug for last 4 weeks, IC-2 10.6 mg/kg i.p. 3 times a week, vs vehicle group
Experimental: To induce anesthesia, 1-mL disposable syringe with a 27-G needle was used to intraperitoneally inject, into a mouse, 1 μL/g body weight of a systemic anesthetic somnopentyl (Kyoritsuseiyaku Corporation, Tokyo).
The liver tissue sample, as so resected, was fixed in 4% paraformaldehyde (Nacalai tesque, Kyoto) at room temperature for 16 h, embedded in paraffin, and sectioned with a microtome to prepare tissue sections, which were then stained by using a Picosirius Red Stain Kit (Polysciences Inc., Warrington, Pa.) in accordance with the attached protocol. After that, a BZ-9000 (KEYENCE CORPORATION, Osaka) was used to take 10 photographs of light-field enlarged images (100×) per tissue sample. The ratio of the red-stained fiber area to the total tissue area of each photographed image was quantified to calculate a fibrosis-positive area ratio.
Seven-week-old C57BL/6 male mice (Japan SLC, Inc., Shizuoka) were subjected to 1-week preparatory rearing and healthy ones were then used. The mice were housed in animal cages at a room temperature of 22±1° C. and a humidity of 50±5% throughout the preparatory rearing and experimental period and were given ad libitum access to food and water.
A microsyringe (ITO CORPORATION, Shizuoka) was used to intraperitoneally administer 0.2 ml/kg of carbon tetrachloride (CCl4; Wako Pure Chemical Industries, Ltd.) 3 times a week for 4, 6, or 8 weeks. […]

| SMILES | inhibitory effect on Wnt/β-catenin signaling pathway in liver cancer cells compared with IC-2 (Wnt/β-catenin signaling) | fibrosis area (Sirius Red staining) (liver fibrosis) |
| --- | --- | --- |
| COc1ccc(COc2ccc(CNC(=O)N3CCC(=O)N4C(Cc5ccccc5)C(=O)N(Cc5cccc6ccccc56)CC34)cc2)cc1 (centres unmarked) [IC-2-OPMB] | more potent inhibitory effect | – |
| O=C1C(Cc2ccccc2)N2C(=O)CCN(C(=O)NCc3ccccc3)C2CN1Cc1cccc2ccccc12 (centres unmarked) [IC-2] | – | decrease more than that of the vehicle group |
